The values that follow come from patent US10377753B2, “Substituted 4-azaindoles and their use as GluN2B receptor modulators” (Janssen Pharmaceutica NV, priority 2015, dated 2019).

Where a name gives a salt, the structure may show the parent alone.

Chain of cloned human NR1/NR2B ion channels (Q13224 27-1484, other chains not shown): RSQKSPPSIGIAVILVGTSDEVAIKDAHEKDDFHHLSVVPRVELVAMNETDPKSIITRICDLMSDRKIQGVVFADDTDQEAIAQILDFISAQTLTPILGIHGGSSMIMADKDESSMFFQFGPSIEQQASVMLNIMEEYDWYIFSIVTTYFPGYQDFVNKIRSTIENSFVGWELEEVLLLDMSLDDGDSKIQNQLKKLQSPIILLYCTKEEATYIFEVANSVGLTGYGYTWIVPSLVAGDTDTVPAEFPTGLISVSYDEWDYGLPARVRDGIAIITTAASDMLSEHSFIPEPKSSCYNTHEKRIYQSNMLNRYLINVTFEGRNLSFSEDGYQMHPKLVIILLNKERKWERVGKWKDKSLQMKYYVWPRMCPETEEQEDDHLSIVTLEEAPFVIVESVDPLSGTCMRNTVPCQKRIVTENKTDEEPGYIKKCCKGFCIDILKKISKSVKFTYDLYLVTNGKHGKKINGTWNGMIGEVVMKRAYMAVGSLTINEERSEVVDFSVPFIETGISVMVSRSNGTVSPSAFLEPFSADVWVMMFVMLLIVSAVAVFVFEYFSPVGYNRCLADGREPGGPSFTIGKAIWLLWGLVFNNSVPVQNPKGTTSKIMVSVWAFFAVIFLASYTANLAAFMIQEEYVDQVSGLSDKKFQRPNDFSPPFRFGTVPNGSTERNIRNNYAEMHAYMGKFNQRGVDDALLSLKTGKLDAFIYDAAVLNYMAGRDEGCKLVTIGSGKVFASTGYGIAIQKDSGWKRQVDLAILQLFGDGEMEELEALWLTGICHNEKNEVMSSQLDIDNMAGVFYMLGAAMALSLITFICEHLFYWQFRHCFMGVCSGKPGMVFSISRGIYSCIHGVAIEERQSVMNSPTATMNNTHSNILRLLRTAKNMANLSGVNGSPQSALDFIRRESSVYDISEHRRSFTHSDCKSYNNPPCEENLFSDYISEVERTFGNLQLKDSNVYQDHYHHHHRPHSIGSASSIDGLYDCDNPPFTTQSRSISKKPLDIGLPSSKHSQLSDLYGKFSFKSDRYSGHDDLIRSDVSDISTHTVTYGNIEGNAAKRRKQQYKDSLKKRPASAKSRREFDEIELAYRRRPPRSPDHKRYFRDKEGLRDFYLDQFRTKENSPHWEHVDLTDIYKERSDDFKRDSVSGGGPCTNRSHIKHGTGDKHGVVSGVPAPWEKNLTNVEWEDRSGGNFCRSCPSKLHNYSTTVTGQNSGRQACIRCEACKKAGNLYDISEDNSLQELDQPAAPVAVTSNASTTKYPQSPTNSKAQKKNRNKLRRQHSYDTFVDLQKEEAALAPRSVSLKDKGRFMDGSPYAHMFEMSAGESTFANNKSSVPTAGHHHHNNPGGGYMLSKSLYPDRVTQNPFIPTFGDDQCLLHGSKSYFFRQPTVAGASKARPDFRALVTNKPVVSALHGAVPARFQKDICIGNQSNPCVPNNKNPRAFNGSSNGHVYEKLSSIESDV

This experiment addresses cloned human NR1/NR2B ion channels (Homo sapiens (Human), UniProt Q05586+Q13224). In words: HNR2BC: effects of test articles on cloned human NR1/NR2B ion channels expressed in mammalian cells (FLIPR calcium flux). It counts as cell-based. Particulars: cloned human NR1/NR2B, Table 5. In a few lines: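 In a stable Tet-On-induced cell line expressing human GluN1/GluN2B, Calcium 5-loaded cells were preincubated 5 min with compound, then stimulated 5 min with glutamate at ~EC80 plus 10 μM glycine, in pH 7.4 HEPES buffer. FLIPR calcium fluorescence was normalized to control wells.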
In general terms: Calcium assays in cells follow changes in intracellular calcium, usually with a dye or a luminescent sensor.
On to `O=C(Cn1cc(F)c2ncc(-c3ccc(F)cc3)cc21)N1CC(F)C1` [Example 308, 1-(3-Fluoroazetidin-1-yl)-2-[3-fluoro-6-(4-fluorophenyl)pyrrolo[3,2-b]pyridin-1-yl]ethanone], for which the IC50 (commonly the concentration at which inhibition is half-maximal) was 63.1 nM.

`Cc1csc(-c2cnc3c(F)cn(CC(=O)N4CC(F)C4)c3c2)c1` [Example 309, 1-(3-Fluoroazetidin-1-yl)-2-[3-fluoro-6-(4-methyl-2-thienyl)pyrrolo[3,2-b]pyridin-1-yl]ethanone]: the IC50 is 200 nM. Still for that read-out and setting: in the case of `O=C(Cn1cc(F)c2ncc(-c3cccc(C(F)F)c3)cc21)N1CC(F)C1` [Example 310, 2-[6-[3-(Difluoromethyl)phenyl]-3-fluoro-pyrrolo[3,2-b]pyridin-1-yl]-1-(3-fluoroazetidin-1-yl)ethanone] it was 50.1 nM; in that of `O=C(Cn1cc(F)c2ncc(-c3ccc(F)c(F)c3)cc21)N1CC(F)C1` [Example 311, 2-[6-(3,4-Difluorophenyl)-3-fluoro-pyrrolo[3,2-b]pyridin-1-yl]-1-(3-fluoroazetidin-1-yl)ethanone], 63.1 nM. The same measure, in the same setting: the result for `O=C(Cn1cc(Cl)c2ncc(-c3ccc(F)c(F)c3F)cc21)N1CCC1` [Example 312, 1-(Azetidin-1-yl)-2-[3-chloro-6-(2,3,4-trifluorophenyl)pyrrolo[3,2-b]pyridin-1-yl]ethanone] reads 158 nM.

In the case of `Cc1cc(-c2cnc3c(F)cn(CC(=O)N4CCCC4)c3c2)ccc1F` [Example 313, 2-[3-Fluoro-6-(4-fluoro-3-methyl-phenyl)pyrrolo[3,2-b]pyridin-1-yl]-1-pyrrolidin-1-yl-ethanone], the IC50 was 20 nM.

In the case of `O=C(Cn1cc(F)c2ncc(-c3ccc(F)cc3)cc21)N1CCCC1` [Example 314, 2-[3-Fluoro-6-(4-fluorophenyl)pyrrolo[3,2-b]pyridin-1-yl]-1-pyrrolidin-1-yl-ethanone], the IC50 was 63.1 nM. Still for that read-out and setting: the result for `O=C(Cn1cc(F)c2ncc(-c3cc(F)c(F)c(F)c3)cc21)N1CCCC1` [Example 315, 2-[3-Fluoro-6-(3,4,5-trifluorophenyl)pyrrolo[3,2-b]pyridin-1-yl]-1-pyrrolidin-1-yl-ethanone] reads 79.4 nM; that for `Cc1cc(-c2cnc3c(F)cn(CC(=O)C4CC4)c3c2)ccc1F` [Example 316, 1-Cyclopropyl-2-[3-fluoro-6-(4-fluoro-3-methyl-phenyl)pyrrolo[3,2-b]pyridin-1-yl]ethanone], 39.8 nM; that for `Cc1csc(-c2cnc3c(F)cn(CC(=O)C4CC4)c3c2)c1` [Example 317, 1-Cyclopropyl-2-[3-fluoro-6-(4-methyl-2-thienyl)pyrrolo[3,2-b]pyridin-1-yl]ethanone], 39.8 nM.

`O=C(Cn1cc(F)c2ncc(-c3ccc(Cl)s3)cc21)C1CC1` [Example 318, 2-[6-(5-Chloro-2-thienyl)-3-fluoro-pyrrolo[3,2-b]pyridin-1-yl]-1-cyclopropyl-ethanone]: the IC50 was 20 nM. `O=C(Cn1cc(F)c2ncc(-c3ccc(F)cc3)cc21)C1CC1` [Example 319, 1-Cyclopropyl-2-[3-fluoro-6-(4-fluorophenyl)pyrrolo[3,2-b]pyridin-1-yl]ethanone]: the IC50 was 20 nM. The same measure, in the same setting: in the case of `O=C(Cn1cc(F)c2ncc(-c3cc(F)c(F)c(F)c3)cc21)C1CC1` [Example 320, 1-Cyclopropyl-2-[3-fluoro-6-(3,4,5-trifluorophenyl)pyrrolo[3,2-b]pyridin-1-yl]ethanone] it was 31.6 nM.

In the case of `O=C(Cn1cc(F)c2ncc(-c3cccc(C(F)F)c3)cc21)C1CC1` [Example 321, 1-Cyclopropyl-2-[6-[3-(difluoromethyl)phenyl]-3-fluoro-pyrrolo[3,2-b]pyridin-1-yl]ethanone], the IC50 was 20 nM.

As for `Cc1csc(-c2cnc3c(F)cn(CC(=O)N4CCC4)c3c2)c1` [Example 322, 1-(Azetidin-1-yl)-2-[3-fluoro-6-(4-methyl-2-thienyl)pyrrolo[3,2-b]pyridin-1-yl]ethanone], the IC50 is 20 nM. For the compound `O=C(Cn1cc(F)c2ncc(-c3cccc(C(F)F)c3)cc21)N1CCC1` [Example 323, 1-(Azetidin-1-yl)-2-[6-[3-(difluoromethyl)phenyl]-3-fluoro-pyrrolo[3,2-b]pyridin-1-yl]ethanone], the IC50 is 100 nM. As for `Cc1cc(-c2cnc3c(F)cn(CC(=O)C(C)C)c3c2)ccc1F` [Example 324, 1-[3-Fluoro-6-(4-fluoro-3-methyl-phenyl)pyrrolo[3,2-b]pyridin-1-yl]-3-methyl-butan-2-one], the IC50 was 100 nM. Still for that read-out and setting: in the case of `CCc1cccc(-c2cnc3c(F)cn(CC(=O)C(C)C)c3c2)c1` [Example 325, 1-[6-(3-Ethylphenyl)-3-fluoro-pyrrolo[3,2-b]pyridin-1-yl]-3-methyl-butan-2-one] it was 200 nM; in that of `CC(C)C(=O)Cn1cc(F)c2ncc(-c3ccc(F)c(F)c3)cc21` [Example 326, 1-[6-(3,4-Difluorophenyl)-3-fluoro-pyrrolo[3,2-b]pyridin-1-yl]-3-methyl-butan-2-one], 200 nM. Still for that read-out and setting: in the case of `CC(C)C(=O)Cn1cc(F)c2ncc(-c3cccc(F)c3)cc21` [Example 327, 1-[3-Fluoro-6-(3-fluorophenyl)pyrrolo[3,2-b]pyridin-1-yl]-3-methyl-butan-2-one] it was 63.1 nM.

On to `CC(C)C(=O)Cn1cc(F)c2ncc(-c3cccc(C(F)(F)F)c3)cc21` [Example 328, 1-[3-Fluoro-6-[3-(trifluoromethyl)phenyl]pyrrolo[3,2-b]pyridin-1-yl]-3-methyl-butan-2-one], for which the half-inhibitory concentration (IC50) is 63.1 nM. `Cc1cccc(-c2cnc3c(F)cn(CC(=O)C(C)C)c3c2)c1` [Example 329, 1-[3-Fluoro-6-(m-tolyl)pyrrolo[3,2-b]pyridin-1-yl]-3-methyl-butan-2-one]: the IC50 is 501 nM.

As to `CSCn1ccc2ncc(-c3ccc(F)c(C)c3)cc21` [Example 330, 6-(4-Fluoro-3-methyl-phenyl)-1-(methylsulfanylmethyl)pyrrolo[3,2-b]pyridine], the 50% inhibitory concentration (IC50) is 63.1 nM.

Regarding `Cc1cc(-c2cnc3ccn(CS(C)(=O)=O)c3c2)ccc1F` [Example 332, 6-(4-Fluoro-3-methyl-phenyl)-1-(methylsulfonylmethyl)pyrrolo[3,2-b]pyridine], the IC50 was 1580 nM. On to `CCC(=O)Cn1cc(F)c2ncc(-c3ccc(F)cc3)cc21` [Example 333, 1-[3-Fluoro-6-(4-fluorophenyl)pyrrolo[3,2-b]pyridin-1-yl]butan-2-one], for which the IC50 was 6310 nM. Still for that read-out and setting: in the case of `CCC(=O)Cn1cc(F)c2ncc(-c3cc(F)c(F)c(F)c3)cc21` [Example 334, 1-[3-Fluoro-6-(3,4,5-trifluorophenyl)pyrrolo[3,2-b]pyridin-1-yl]butan-2-one] it was 25.1 nM; in that of `CCC(=O)Cn1cc(F)c2ncc(-c3ccc(F)c(C)c3)cc21` [Example 335, 1-[3-Fluoro-6-(4-fluoro-3-methyl-phenyl)pyrrolo[3,2-b]pyridin-1-yl]butan-2-one], 12.6 nM. On to `CCC(=O)Cn1cc(F)c2ncc(-c3ccc(F)c(F)c3)cc21` [Example 336, 1-[6-(3,4-Difluorophenyl)-3-fluoro-pyrrolo[3,2-b]pyridin-1-yl]butan-2-one], for which the IC50 is 20 nM. On the same count and under the same terms, the result for `CCC(=O)Cn1cc(F)c2ncc(-c3cccc(C(F)F)c3)cc21` [Example 337, 1-[6-[3-(Difluoromethyl)phenyl]-3-fluoro-pyrrolo[3,2-b]pyridin-1-yl]butan-2-one] reads 15.8 nM. For `CCC(=O)Cn1cc(F)c2ncc(-c3ccc(Cl)s3)cc21` [Example 338, 1-[6-(5-Chloro-2-thienyl)-3-fluoro-pyrrolo[3,2-b]pyridin-1-yl]butan-2-one], the IC50 was 15.8 nM. Take `CCC(=O)Cn1cc(F)c2ncc(-c3cc(C)cs3)cc21` [Example 339, 1-[3-Fluoro-6-(4-methyl-2-thienyl)pyrrolo[3,2-b]pyridin-1-yl]butan-2-one]: the IC50 is 12.6 nM. Regarding `CC(=O)CCn1ccc2ncc(-c3ccc(F)cc3)cc21` [Example 340, 4-[6-(4-Fluorophenyl)pyrrolo[3,2-b]pyridin-1-yl]butan-2-one], the pIC50 (usually the IC50 on a negative log10 scale, so that one unit is a factor of ten) came to 7.9. Regarding `CC(C)C(=O)Cn1cc(F)c2ncc(-c3ccc(F)cc3)cc21` [Example 341, 1-[3-Fluoro-6-(4-fluorophenyl)pyrrolo[3,2-b]pyridin-1-yl]-3-methyl-butan-2-one], the IC50 was 1000 nM.

Take `CC(C)C(=O)Cn1cc(F)c2ncc(-c3cccc(C(F)F)c3)cc21` [Example 342, 1-[6-[3-(Difluoromethyl)phenyl]-3-fluoro-pyrrolo[3,2-b]pyridin-1-yl]-3-methyl-butan-2-one]: the IC50 was 50.1 nM. The same measure, in the same setting: the result for `Cc1csc(-c2cnc3c(F)cn(CC(=O)C(C)C)c3c2)c1` [Example 343, 1-[3-Fluoro-6-(4-methyl-2-thienyl)pyrrolo[3,2-b]pyridin-1-yl]-3-methyl-butan-2-one] reads 63.1 nM; that for `CC(C)C(=O)Cn1cc(F)c2ncc(-c3cc(F)c(F)c(F)c3)cc21` [Example 344, 1-[3-Fluoro-6-(3,4,5-trifluorophenyl)pyrrolo[3,2-b]pyridin-1-yl]-3-methyl-butan-2-one], 50.1 nM. As for `CC(C)C(=O)Cn1cc(F)c2ncc(-c3ccc(Cl)s3)cc21` [Example 345, 1-[6-(5-Chloro-2-thienyl)-3-fluoro-pyrrolo[3,2-b]pyridin-1-yl]-3-methyl-butan-2-one], the IC50 was 31.6 nM. Regarding `Cc1cc(-c2cnc3ccn(CC(=O)N4CCOCC4)c3c2)ccc1F` [Example 346, 2-[6-(4-Fluoro-3-methyl-phenyl)pyrrolo[3,2-b]pyridin-1-yl]-1-morpholino-ethanone], the IC50 was 39.8 nM. For `Cc1cc(-c2cnc3ccn(CC(=O)NC4CC4)c3c2)ccc1F` [Example 348, N-Cyclopropyl-2-[6-(4-fluoro-3-methyl-phenyl)pyrrolo[3,2-b]pyridin-1-yl]acetamide], the IC50 was 31.6 nM. On the same count and under the same terms, in the case of `O=C(Cn1ccc2ncc(-c3cc(F)cc(F)c3)cc21)NC1CC1` [Example 350, N-Cyclopropyl-2-[6-(3,5-difluorophenyl)pyrrolo[3,2-b]pyridin-1-yl]acetamide trifluoroacetate salt] it was 15.8 nM.
